Laboratory results: patent US6753323B2, “Topical administration of amifostine and related compounds” (MedImmune Oncology, Inc., priority 1998, dated 2004)

What was measured:
Aspergillus niger [1] = assay: Microbial growth inhibition, refrigerated storage (2°-8° C.); type: cell-based; details: A. niger, refrigerated 2°-8° C.; for % Change: vs theoretical 0 hr count
Method: (§1) Amifostine was studied for its ability to inhibit microbial growth. Clear 10 cc vials, stoppers and seals were sterilized for use in the study. Two separate procedures were performed: a refrigerated storage study (2° to 8° C.) and a room temperature storage study (20° to 25° C.). For each test portion, positive controls were prepared for each organism by placing 9.5 mL sterile 0.9% sodium chloride into separate sterile vials and inoculating each with 10^3 to 10^4 of one of the test organisms. In addition, amifostine test specimens were prepared for each test portion by reconstituting six Ethyol® vials with 0.9% sodium chloride, the contents of each of these vials were then transferred to clear sterile vials to allow for easier visual examination. One vial was designated as a negative control, and each of the remaining five vials was inoculated with 10^3 to 10^4 of one of the test organisms. All vials were protected from light throughout the test to simulate the amber Ethyol® vial.
(§2) Positive controls, product test specimens, and a negative control were prepared. At this time, population counts were performed on each positive control. Population counts were also performed on positive controls and product test specimens at 24, 48 and 72 hours. These samples were diluted with sterile water and plated in duplicate with a target of 30 to 300 colonies per plate. Candida albicans, Escherichia coli, Pseudomonas aeruginosa, and Staphylococcus aureus were overpoured with TSA agar and incubated at 30-35° C. for 48 hours. Aspergillus niger was overpoured with Sabouraud agar and incubated at 20-25° C. for 48 hours.

Candida albicans [2] = assay: as above; type: cell-based; details: refrigerated 2°-8° C.; for % Change: vs theoretical 0 hr count
Method: as §1, §2

Escherichia coli [3] = assay: as above; type: cell-based; details: E. coli, refrigerated 2°-8° C.; for % Change: vs theoretical 0 hr count
Method: as §1, §2

Pseudomonas aeruginosa [4] = assay: as above; type: cell-based; details: P. aeruginosa, refrigerated 2°-8° C.; for % Change: vs theoretical 0 hr count
Method: as §1, §2

Staphylococcus aureus [5] = assay: as above; type: cell-based; details: S. aureus, refrigerated 2°-8° C.; for % Change: vs theoretical 0 hr count
Method: as §1, §2

Aspergillus niger [6] = assay: Microbial growth inhibition, room temperature storage (20°-25° C.); type: cell-based; details: A. niger, room temperature 20°-25° C.; for % Change: vs theoretical 0 hr count
Method: as §1
as §2, with “24 and” for “24,”, “48” for “48 and 72”

Candida albicans [7] = assay: as above; type: cell-based; details: room temperature 20°-25° C.; for % Change: vs theoretical 0 hr count
Method: as §1
as §2, with “24 and” for “24,”, “48” for “48 and 72”

Escherichia coli [8] = assay: as above; type: cell-based; details: E. coli, room temperature 20°-25° C.; for % Change: vs theoretical 0 hr count
Method: as §1
as §2, with “24 and” for “24,”, “48” for “48 and 72”

Pseudomonas aeruginosa [9] = assay: as above; type: cell-based; details: P. aeruginosa, room temperature 20°-25° C.; for % Change: vs theoretical 0 hr count
Method: as §1
as §2, with “24 and” for “24,”, “48” for “48 and 72”

Staphylococcus aureus [10] = assay: as above; type: cell-based; details: S. aureus, room temperature 20°-25° C.; for % Change: vs theoretical 0 hr count
Method: as §1
as §2, with “24 and” for “24,”, “48” for “48 and 72”

[11] = test system: five compendial organisms; assay: Microbial growth inhibition, room temperature storage, summary over all test organisms; type: cell-based
Method: as §1
Positive controls, product test specimens, and a negative control were prepared. At this time, population counts were performed on each positive control. Population counts were also performed on positive controls and product test specimens at 24 and 48 hours. These samples were diluted with sterile water and plated in duplicate with a target of 30 to 300 colonies per plate. […]

oral mucosa of mice = details: topical in carbowax to oral mucosa; cited from earlier work
mouse skin = details: cited from earlier work
murine skin = details: gauze with 10% solution in saline on murine skin 15 to 60 minutes, then 137Cs irradiation; cited from earlier work
rectal wall of rats = details: intrarectal injection of 2% amifostine gel; cited from earlier work
[12] = test system: intestinal mucosa in patients; details: enema in Proctofoam, 100 to 450 mg, 45 minutes prior to pelvic radiation; cited from earlier work
small intestine of rats = details: 150 mg/mL in pH 9 Tris buffer, intralumenal; cited from earlier work

**Q.** For NCCCNCCSP(=O)(O)O [amifostine, S-2-(3-aminopropylamino)ethyl dihydrogen phosphorothioate], which “CFU/mL in Amifostine” value (Aspergillus niger [1]; 24 hr) is on record?
**A.** 1.78 × 10^5 CFU/mL

**Q.** What about the “% Change” value (Aspergillus niger [1]; 24 hr) of the same compound?
**A.** −40.7%

**Q.** And the “CFU/mL in Amifostine” value (Aspergillus niger [1]; 48 hr)?
**A.** 1.67 × 10^5 CFU/mL

**Q.** And the “% Change” value (Aspergillus niger [1]; 48 hr)?
**A.** −44.3%

**Q.** And the “CFU/mL in Amifostine” value (Aspergillus niger [1]; 72 hr)?
**A.** 1.67 × 10^5 CFU/mL

**Q.** What about the “% Change” value (Aspergillus niger [1]; 72 hr) of the same compound?
**A.** −44.3%

**Q.** What about the “CFU/mL in Amifostine” value (Candida albicans [2]; 24 hr) of the same compound?
**A.** 3.99 × 10^3 CFU/mL

**Q.** What about the “% Change” value (Candida albicans [2]; 24 hr) of the same compound?
**A.** −63.0%

**Q.** What about the “CFU/mL in Amifostine” value (Candida albicans [2]; 48 hr) of the same compound?
**A.** 2.09 × 10^3 CFU/mL

**Q.** What about the “% Change” value (Candida albicans [2]; 48 hr) of the same compound?
**A.** −80.6%

**Q.** And the “CFU/mL in Amifostine” value (Candida albicans [2]; 72 hr)?
**A.** 7.13 × 10^3 CFU/mL

**Q.** What about the “% Change” value (Candida albicans [2]; 72 hr) of the same compound?
**A.** −34.0%

**Q.** What about the “CFU/mL in Amifostine” value (Escherichia coli [3]; 24 hr) of the same compound?
**A.** 2.85 × 10^2 CFU/mL

**Q.** What about the “% Change” value (Escherichia coli [3]; 24 hr) of the same compound?
**A.** −70.0%

**Q.** What about the “CFU/mL in Amifostine” value (Escherichia coli [3]; 48 hr) of the same compound?
**A.** 0 CFU/mL

**Q.** And the “% Change” value (Escherichia coli [3]; 48 hr)?
**A.** −100%

**Q.** What about the “CFU/mL in Amifostine” value (Escherichia coli [3]; 72 hr) of the same compound?
**A.** 0 CFU/mL

**Q.** What about the “% Change” value (Escherichia coli [3]; 72 hr) of the same compound?
**A.** −100%

**Q.** And the “CFU/mL in Amifostine” value (Pseudomonas aeruginosa [4]; 24 hr)?
**A.** 3.04 × 10^3 CFU/mL

**Q.** And the “% Change” value (Pseudomonas aeruginosa [4]; 24 hr)?
**A.** −20.0%

**Q.** And the “CFU/mL in Amifostine” value (Pseudomonas aeruginosa [4]; 48 hr)?
**A.** 1.76 × 10^3 CFU/mL

**Q.** And the “% Change” value (Pseudomonas aeruginosa [4]; 48 hr)?
**A.** −53.7%

**Q.** And the “CFU/mL in Amifostine” value (Pseudomonas aeruginosa [4]; 72 hr)?
**A.** 1.85 × 10^3 CFU/mL

**Q.** What about the “% Change” value (Pseudomonas aeruginosa [4]; 72 hr) of the same compound?
**A.** −51.3%

**Q.** And the “CFU/mL in Amifostine” value (Staphylococcus aureus [5]; 24 hr)?
**A.** 4.75 × 10^1 CFU/mL

**Q.** And the “% Change” value (Staphylococcus aureus [5]; 24 hr)?
**A.** −50.0%

**Q.** And the “CFU/mL in Amifostine” value (Staphylococcus aureus [5]; 48 hr)?
**A.** 4.75 × 10^1 CFU/mL

**Q.** What about the “% Change” value (Staphylococcus aureus [5]; 48 hr) of the same compound?
**A.** −50.0%

**Q.** What about the “CFU/mL in Amifostine” value (Staphylococcus aureus [5]; 72 hr) of the same compound?
**A.** 4.75 × 10^1 CFU/mL

**Q.** And the “% Change” value (Staphylococcus aureus [5]; 72 hr)?
**A.** −50.0%

**Q.** What about the “CFU/mL in Amifostine” value (Aspergillus niger [6]; 24 hr) of the same compound?
**A.** 1.56 × 10^7 CFU/mL

**Q.** What about the “% Change” value (Aspergillus niger [6]; 24 hr) of the same compound?
**A.** +58.3%

**Q.** What about the “CFU/mL in Amifostine” value (Aspergillus niger [6]; 48 hr) of the same compound?
**A.** 3.52 × 10^6 CFU/mL

**Q.** And the “% Change” value (Aspergillus niger [6]; 48 hr)?
**A.** −61.3%

**Q.** And the “CFU/mL in Amifostine” value (Candida albicans [7]; 24 hr)?
**A.** 1.43 × 10^4 CFU/mL

**Q.** What about the “% Change” value (Candida albicans [7]; 24 hr) of the same compound?
**A.** −13.8%

**Q.** What about the “CFU/mL in Amifostine” value (Candida albicans [7]; 48 hr) of the same compound?
**A.** 1.00 × 10^4 CFU/mL

**Q.** And the “% Change” value (Candida albicans [7]; 48 hr)?
**A.** −39.8%

**Q.** What about the “CFU/mL in Amifostine” value (Escherichia coli [8]; 24 hr) of the same compound?
**A.** 2.28 × 10^3 CFU/mL

**Q.** What about the “% Change” value (Escherichia coli [8]; 24 hr) of the same compound?
**A.** −91.8%

**Q.** And the “CFU/mL in Amifostine” value (Escherichia coli [8]; 48 hr)?
**A.** 8.55 × 10^2 CFU/mL

**Q.** What about the “% Change” value (Escherichia coli [8]; 48 hr) of the same compound?
**A.** −96.9%

**Q.** What about the “CFU/mL in Amifostine” value (Pseudomonas aeruginosa [9]; 24 hr) of the same compound?
**A.** 5.22 × 10^2 CFU/mL

**Q.** What about the “% Change” value (Pseudomonas aeruginosa [9]; 24 hr) of the same compound?
**A.** −80.0%

**Q.** And the “CFU/mL in Amifostine” value (Pseudomonas aeruginosa [9]; 48 hr)?
**A.** 0 CFU/mL

**Q.** And the “% Change” value (Pseudomonas aeruginosa [9]; 48 hr)?
**A.** −100%

**Q.** What about the “CFU/mL in Amifostine” value (Staphylococcus aureus [10]; 24 hr) of the same compound?
**A.** 9.60 × 10^4 CFU/mL

**Q.** What about the “% Change” value (Staphylococcus aureus [10]; 24 hr) of the same compound?
**A.** −4.0%

**Q.** What about the “CFU/mL in Amifostine” value (Staphylococcus aureus [10]; 48 hr) of the same compound?
**A.** 3.32 × 10^2 CFU/mL

**Q.** What about the “% Change” value (Staphylococcus aureus [10]; 48 hr) of the same compound?
**A.** −99.7%

**Q.** And the “concentration of viable microorganisms at 24 hours” value [11]?
**A.** reduced in four of the five compendial organisms

**Q.** What about the “toxicity at the dosages tested” value (oral mucosa of mice) of the same compound?
**A.** no toxicity observed

**Q.** And the “radioprotective effect, topically applied” value (mouse skin; paste (aqueous sodium bicarbonate pH 7 and Unibase) on mouse skin, any dose studied)?
**A.** no radioprotective effect

**Q.** And the “radioprotective effect, systemically administered” value (mouse skin; systemic administration, mice)?
**A.** effective in reducing the severity of radiation damage

**Q.** What about the “radioprotective effect, topically applied” value (murine skin) of the same compound?
**A.** no significant radioprotective effects

**Q.** And the “tissue level of metabolite WR-1065 after topical application” value (rectal wall of rats)?
**A.** accumulation of the amifostine metabolite WR-1065 in the rectal wall

**Q.** And the “rectal mucosal damage, test group vs control group” value [12]?
**A.** no significant differences

**Q.** And the “radioprotection against intestinal mucositis” value (small intestine of rats)?
**A.** effective radioprotector
